According to patent US20250195521A1 (Revolution Medicines, Inc., priority 2020, published 2025):

Key:
[1] = target: KRAS WT (Homo sapiens (Human), UniProt P01116+P62937); experiment: Ras-Raf disruption/FRET/MOA assay (BRAF RBD, Cyclophilin A); assay type: biochemical; conditions: read-out: KRAS WT FRET data IC50
How it was run: (§1)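 First, 25 μM Cyclophilin A, 12.5 nM His6-Ras-GMPPNP and 50 nM GST-BRAF RBD are mixed with diluted compound at pH 7.3. Next, 3 h at 25° C. Then 10 nM anti-His Eu-W1024 plus 50 nM anti-GST allophycocyanin for 1.5 h before TR-FRET reading.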

[2] = target: KRAS G12S (Homo sapiens (Human), UniProt P01116+P62937, G12S); experiment: as above; assay type: biochemical; conditions: read-out: KRAS G12S FRET IC50
Sequence of KRAS G12S (P01116 other isoform, or with tags, fused parts or gaps G12S): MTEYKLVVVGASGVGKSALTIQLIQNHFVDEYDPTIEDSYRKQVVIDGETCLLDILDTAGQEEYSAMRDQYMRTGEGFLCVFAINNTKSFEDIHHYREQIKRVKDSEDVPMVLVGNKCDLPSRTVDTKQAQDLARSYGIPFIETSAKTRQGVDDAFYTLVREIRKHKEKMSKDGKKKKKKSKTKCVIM
Sequence of KRAS G12S (P62937 whole entry): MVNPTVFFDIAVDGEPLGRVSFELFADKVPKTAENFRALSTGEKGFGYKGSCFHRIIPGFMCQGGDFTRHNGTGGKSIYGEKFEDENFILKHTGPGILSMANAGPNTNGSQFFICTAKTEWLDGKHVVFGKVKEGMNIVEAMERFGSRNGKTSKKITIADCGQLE
How it was run: as §1

[3] = target: KRAS Q61H (Homo sapiens (Human), UniProt P01116+P62937, Q61H); experiment: as above; assay type: biochemical
Sequence of KRAS Q61H (P01116 other isoform, or with tags, fused parts or gaps Q61H): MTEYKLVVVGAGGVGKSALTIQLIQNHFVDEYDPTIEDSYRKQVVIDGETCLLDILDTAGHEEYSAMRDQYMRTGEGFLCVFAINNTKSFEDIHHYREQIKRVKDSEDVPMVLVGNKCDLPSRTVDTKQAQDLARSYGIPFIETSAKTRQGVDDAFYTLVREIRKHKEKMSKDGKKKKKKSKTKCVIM
Sequence of KRAS Q61H (P62937 whole entry): as the sequence (P62937 whole entry) above
How it was run: as §1

[4] = target: KRAS G12D (Homo sapiens (Human), UniProt P01116+P62937, G12D); experiment: as above; assay type: biochemical; conditions: read-out: KRAS G12D FRET IC50
Sequence of KRAS G12D (P01116 other isoform, or with tags, fused parts or gaps G12D): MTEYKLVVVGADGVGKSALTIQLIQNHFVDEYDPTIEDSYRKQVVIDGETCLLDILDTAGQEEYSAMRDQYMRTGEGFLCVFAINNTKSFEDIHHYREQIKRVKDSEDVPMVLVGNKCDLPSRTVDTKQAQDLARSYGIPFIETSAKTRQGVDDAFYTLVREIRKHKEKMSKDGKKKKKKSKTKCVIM
Sequence of KRAS G12D (P62937 whole entry): as the sequence (P62937 whole entry) above
How it was run: as §1

[5] = target: KRAS G13C (Homo sapiens (Human), UniProt P01116+P62937, G13C); experiment: as above; assay type: biochemical; conditions: read-out: KRAS G13C FRET IC50
Sequence of KRAS G13C (P01116 other isoform, or with tags, fused parts or gaps G13C): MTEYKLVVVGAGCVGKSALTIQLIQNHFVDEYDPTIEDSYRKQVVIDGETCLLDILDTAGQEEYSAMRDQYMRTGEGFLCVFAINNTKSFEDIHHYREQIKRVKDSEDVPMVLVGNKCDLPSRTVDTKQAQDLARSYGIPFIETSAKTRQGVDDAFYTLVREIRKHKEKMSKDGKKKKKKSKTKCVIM
Sequence of KRAS G13C (P62937 whole entry): as the sequence (P62937 whole entry) above
How it was run: as §1

[6] = target: NRAS G12C (Homo sapiens (Human), UniProt P01111+P62937, G12C); experiment: as above; assay type: biochemical; conditions: read-out: NRAS G12C FRET data IC50
Sequence of NRAS G12C (P01111 whole entry G12C): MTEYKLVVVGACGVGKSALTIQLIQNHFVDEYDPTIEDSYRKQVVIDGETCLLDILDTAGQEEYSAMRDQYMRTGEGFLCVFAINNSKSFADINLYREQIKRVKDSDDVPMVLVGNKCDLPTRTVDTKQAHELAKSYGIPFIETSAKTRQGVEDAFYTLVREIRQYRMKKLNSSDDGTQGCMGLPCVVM
Sequence of NRAS G12C (P62937 whole entry): as the sequence (P62937 whole entry) above
How it was run: (§2)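 Ras-GMPPNP (12.5 nM), BRAF RBD (50 nM) and 25 μM Cyclophilin A were incubated with compound for 3 h at 25° C, then detected 1.5 h with anti-His Eu and anti-GST APC; IC50 values follow from the reduced TR-FRET ratio.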

[7] = target: KRAS G12V (Homo sapiens (Human), UniProt P01116+P62937, G12V); experiment: as above; assay type: biochemical; conditions: read-out: KRAS G12V FRET IC50
Sequence of KRAS G12V (P01116 other isoform, or with tags, fused parts or gaps G12V): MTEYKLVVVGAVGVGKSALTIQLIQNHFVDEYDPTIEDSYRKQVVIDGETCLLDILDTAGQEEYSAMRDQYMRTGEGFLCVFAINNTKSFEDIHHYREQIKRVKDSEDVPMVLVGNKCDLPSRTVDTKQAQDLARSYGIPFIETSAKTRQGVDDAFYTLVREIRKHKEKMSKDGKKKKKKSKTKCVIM
Sequence of KRAS G12V (P62937 whole entry): as the sequence (P62937 whole entry) above
How it was run: as §1

[8] = target: NRAS Q61R (Homo sapiens (Human), UniProt P01111+P62937, Q61R); experiment: as above; assay type: biochemical
Sequence of NRAS Q61R (P01111 whole entry Q61R): as the sequence (P01111 whole entry G12C) above, with C12G, Q61R counted along it
Sequence of NRAS Q61R (P62937 whole entry): as the sequence (P62937 whole entry) above
How it was run: as §2

[9] = target: KRAS G13D (Homo sapiens (Human), UniProt P01116+P62937, G13D); experiment: as above; assay type: biochemical; conditions: read-out: KRAS G13D FRET data IC50
Sequence of KRAS G13D (P01116 other isoform, or with tags, fused parts or gaps G13D): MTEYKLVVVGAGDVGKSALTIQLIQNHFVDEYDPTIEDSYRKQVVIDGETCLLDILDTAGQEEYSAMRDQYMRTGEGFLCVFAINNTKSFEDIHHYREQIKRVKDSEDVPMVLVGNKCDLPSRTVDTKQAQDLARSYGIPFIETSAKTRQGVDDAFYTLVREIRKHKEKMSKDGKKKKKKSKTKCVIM
Sequence of KRAS G13D (P62937 whole entry): as the sequence (P62937 whole entry) above
How it was run: as §1

[10] = target: NRAS WT (Homo sapiens (Human), UniProt P01111+P62937); experiment: as above; assay type: biochemical
Sequence of NRAS WT (P01111 whole entry): as the sequence (P01111 whole entry G12C) above, with C12G counted along it
Sequence of NRAS WT (P62937 whole entry): as the sequence (P62937 whole entry) above
How it was run: as §2

[11] = target: NRAS Q61K (Homo sapiens (Human), UniProt P01111+P62937, Q61K); experiment: as above; assay type: biochemical
Sequence of NRAS Q61K (P01111 whole entry Q61K): as the sequence (P01111 whole entry G12C) above, with C12G, Q61K counted along it
Sequence of NRAS Q61K (P62937 whole entry): as the sequence (P62937 whole entry) above
How it was run: as §2

[12] = target: KRAS G12C (Homo sapiens (Human), UniProt P01116+P62937, G12C); experiment: as above; assay type: biochemical; conditions: read-out: KRAS G12C FRET IC50
Sequence of KRAS G12C (P01116-2 other isoform, or with tags, fused parts or gaps G12C): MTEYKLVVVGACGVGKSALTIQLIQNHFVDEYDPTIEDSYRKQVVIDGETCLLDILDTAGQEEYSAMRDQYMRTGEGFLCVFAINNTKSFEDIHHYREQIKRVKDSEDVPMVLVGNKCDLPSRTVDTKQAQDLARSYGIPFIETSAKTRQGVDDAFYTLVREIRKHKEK
Sequence of KRAS G12C (P62937 whole entry): as the sequence (P62937 whole entry) above
How it was run: as §1

[13] = system: NCI-H358 (K-Ras G12C); experiment: CellTiter-Glo cell viability assay, NCI-H358; assay type: cell-based, human; conditions: Homo sapiens, NCI-H358, 120 h, 5-day treatment; read-out: H358 Cell Viability assay data (K-Ras G12C, IC50)
How it was run: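 Luminescent CellTiter-Glo read-out on day 5 after compound exposure; signal expressed as percent of mean DMSO control; four-parameter logistic fit gives the value.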

Sequence of KRAS WT (P01116 other isoform, or with tags, fused parts or gaps): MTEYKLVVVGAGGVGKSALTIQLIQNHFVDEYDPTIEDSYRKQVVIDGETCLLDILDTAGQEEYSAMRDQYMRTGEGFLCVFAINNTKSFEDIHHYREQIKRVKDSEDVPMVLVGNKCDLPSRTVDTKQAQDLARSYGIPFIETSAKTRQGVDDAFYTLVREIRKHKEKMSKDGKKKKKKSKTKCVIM
Sequence of KRAS WT (P62937 whole entry): as the sequence (P62937 whole entry) above

IC50 [1] [nM] | IC50 [2] [nM] | IC50 [3] [nM] | IC50 [4] [nM] | IC50 [5] [nM] | IC50 [6] [nM] | IC50 [7] [nM] | IC50 [8] [nM] | IC50 [9] [nM] | IC50 [10] [nM] | IC50 [11] [nM] | IC50 [12] [nM] | IC50 [13] [nM] | Compound
100 to 1000 | 100 to 1000 | 100 to 1000 | 100 to 1000 | 100 to 1000 | 100 to 1000 | 1000 to 10000 | 1000 to 10000 | 100 to 1000 | 100 to 1000 | 1000 to 10000 | 100 to 1000 |  | CCn1c(-c2cccnc2[C@H](C)OC)c2c3cc(ccc31)-c1csc(n1)C[C@H](NC(=O)[C@H](C(C)C)N(C)C(=O)N1CCC[C@@H]1CN(C)C)C(=O)N1CCC[C@H](N1)C(=O)OCC(C)(C)C2 [Compound A518]
100 to 1000 | 100 to 1000 | 10 to 100 | 100 to 1000 | 100 to 1000 | 10 to 100 | 100 to 1000 | 100 to 1000 | 100 to 1000 | 100 to 1000 |  | 10 to 100 | 10 to 100 | CCn1c(-c2cccnc2[C@H](C)OC)c2c3cc(ccc31)-c1csc(n1)C[C@H](NC(=O)[C@H](C(C)C)N(C)C(=O)N1CC([C@H](C)N(C)C)C1)C(=O)N1CCC[C@H](N1)C(=O)OCC(C)(C)C2 [Compound A538]
100 to 1000 | 100 to 1000 | 100 to 1000 | 1000 to 10000 | 100 to 1000 | 100 to 1000 | 1000 to 10000 | 100 to 1000 | 1000 to 10000 | 100 to 1000 | 100 to 1000 | 100 to 1000 |  | CCn1c(-c2cccnc2[C@H](C)OC)c2c3cc(ccc31)-c1csc(n1)C[C@H](NC(=O)[C@H](C(C)C)N(CCc1ccncc1)C1CC1)C(=O)N1CCC[C@H](N1)C(=O)OCC(C)(C)C2 [Compound A556]
100 to 1000 | 100 to 1000 | 10 to 100 | 100 to 1000 | 100 to 1000 | 10 to 100 | 100 to 1000 | 100 to 1000 | 100 to 1000 | 100 to 1000 | 100 to 1000 | 100 to 1000 |  | CCn1c(-c2cccnc2[C@H](C)OC)c2c3cc(ccc31)-c1csc(n1)C[C@H](NC(=O)[C@H](C(C)C)N(C)C(=O)N1CC[C@@H](F)[C@H](N)C1)C(=O)N1CCC[C@H](N1)C(=O)OCC(C)(C)C2 [Compound A559]
100 to 1000 | 100 to 1000 | 100 to 1000 | 1000 to 10000 | 100 to 1000 | 100 to 1000 | 100 to 1000 | 100 to 1000 | 1000 to 10000 | 100 to 1000 | 100 to 1000 | 100 to 1000 |  | CCn1c(-c2cccnc2[C@H](C)OC)c2c3cc(ccc31)-c1csc(n1)C[C@H](NC(=O)[C@H](C(C)C)N(C)C(=O)[C@@H]1OCC[C@@H]1c1ccccc1)C(=O)N1CCC[C@H](N1)C(=O)OCC(C)(C)C2 [Compound A585]
100 to 1000 | 100 to 1000 | 100 to 1000 | 100 to 1000 | 100 to 1000 | 100 to 1000 | 100 to 1000 | 100 to 1000 | 100 to 1000 | 100 to 1000 | 100 to 1000 | 10 to 100 |  | CCn1c(-c2cccnc2[C@H](C)OC)c2c3cc(ccc31)-c1cccc(c1)C[C@H](NC(=O)[C@H](C(C)C)N(C)C(=O)[C@@H]1OCC[C@@H]1c1ccccc1)C(=O)N1CCC[C@H](N1)C(=O)OCC(C)(C)C2 [Compound A586]
10 to 100 | 100 to 1000 | 10 to 100 | 100 to 1000 | 100 to 1000 | 10 to 100 | 100 to 1000 | 100 to 1000 | 100 to 1000 | 10 to 100 |  | 10 to 100 | < 10 | CCn1c(-c2cccnc2[C@H](C)OC)c2c3cc(ccc31)-c1csc(n1)C[C@H](NC(=O)[C@H](C(C)C)N(C)C(=O)N1CCN(C(=O)[C@@H]3CCCN3C)CC1)C(=O)N1CCC[C@H](N1)C(=O)OCC(C)(C)C2 [Compound A596]
